In patent US20230151003A1, “COMPOUNDS AND METHODS OF USE” (Exelixis, Inc., priority 2020, published 2023):
Where a name gives a salt, the structure may show the parent alone.

target: T1, Mer (Homo sapiens, UniProt Q12866); test: Mer autophosphorylation ELISA in transient transfected 293A cells; type: cell-based; details: Table 3 Cellular Activities; MERTK-transfected 293A cells, phospho-Mer ELISA
T1 construct: host or cells: 293A cells (Thermo Fisher #R70507)
T1 sequence (Q12866 21-999): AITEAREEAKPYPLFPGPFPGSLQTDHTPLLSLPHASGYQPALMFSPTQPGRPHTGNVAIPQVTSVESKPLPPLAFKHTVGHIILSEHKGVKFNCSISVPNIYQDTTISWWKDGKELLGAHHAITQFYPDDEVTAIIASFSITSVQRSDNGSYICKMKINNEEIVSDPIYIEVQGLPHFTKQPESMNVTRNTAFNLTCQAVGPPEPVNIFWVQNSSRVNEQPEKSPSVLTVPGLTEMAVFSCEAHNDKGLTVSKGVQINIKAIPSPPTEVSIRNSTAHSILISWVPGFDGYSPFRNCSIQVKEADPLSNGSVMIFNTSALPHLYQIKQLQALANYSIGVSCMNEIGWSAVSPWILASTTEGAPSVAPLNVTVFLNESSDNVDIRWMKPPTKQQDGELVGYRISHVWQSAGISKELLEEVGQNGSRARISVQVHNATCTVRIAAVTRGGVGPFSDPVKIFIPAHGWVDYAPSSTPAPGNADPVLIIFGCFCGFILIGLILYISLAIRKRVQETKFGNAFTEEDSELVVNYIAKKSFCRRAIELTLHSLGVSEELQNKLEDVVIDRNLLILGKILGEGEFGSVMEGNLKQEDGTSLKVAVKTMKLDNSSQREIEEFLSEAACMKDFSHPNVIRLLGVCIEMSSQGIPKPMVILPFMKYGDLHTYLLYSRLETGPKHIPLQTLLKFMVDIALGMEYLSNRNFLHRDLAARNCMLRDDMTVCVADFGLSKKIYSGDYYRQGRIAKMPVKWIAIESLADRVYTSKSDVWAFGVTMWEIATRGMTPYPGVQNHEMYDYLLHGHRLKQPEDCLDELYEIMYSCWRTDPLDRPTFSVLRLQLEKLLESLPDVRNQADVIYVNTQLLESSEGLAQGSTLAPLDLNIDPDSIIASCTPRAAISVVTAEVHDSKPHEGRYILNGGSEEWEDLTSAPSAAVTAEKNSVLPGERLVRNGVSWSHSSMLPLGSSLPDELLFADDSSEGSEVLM
In short: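 Phospho-Mer quantified by ELISA in lysates of transiently MERTK-transfected 293A cells after 1 h exposure to an 8-point compound series, serum-free, 0.3% DMSO. Activity normalized between DMSO-treated (100%) and reference inhibitor-treated (0%) lysates; IC50 via 4-parameter nonlinear regression.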

IC50, ≤ 100 nM:
COc1cnc2c(Oc3ccc(NC(=O)c4cn(CCF)c(C)c(-c5ccsc5)c4=O)cc3F)ccnc2c1 [Compound 330, 1-(2-Fluoroethyl)-N-[3-fluoro-4-[(7-methoxy-1,5-naphthyridin-4-yl)oxy]phenyl]-6-methyl-4-oxo-5-thiophen-3-ylpyridine-3-carboxamide]
COc1cc2nccc(Oc3ccc(NC(=O)c4cnc(C)c(-c5cc(C)nn5C)c4O)cc3F)c2nc1OC [Compound 136, N-[4-[(6,7-Dimethoxy-1,5-naphthyridin-4-yl)oxy]-3-fluorophenyl]-5-(2,5-dimethylpyrazol-3-yl)-4-hydroxy-6-methylpyridine-3-carboxamide]
COc1cnc2c(Oc3ccc(NC(=O)c4cnc(C)c(-c5cccs5)c4O)cc3F)ccnc2c1 [Compound 100, N-[3-Fluoro-4-[(7-methoxy-1,5-naphthyridin-4-yl)oxy]phenyl]-4-hydroxy-6-methyl-5-(2-thienyl)pyridine-3-carboxamide]
COc1cc2nccc(Oc3cc(F)c(NC(=O)c4c(C)n(C)c(C)c(-c5ccco5)c4=O)cc3F)c2nc1OC [Compound 163, N-[4-[(6,7-Dimethoxy-1,5-naphthyridin-4-yl)oxy]-2,5-difluorophenyl]-5-(furan-2-yl)-1,2,6-trimethyl-4-oxopyridine-3-carboxamide]
COc1cc2nccc(Oc3ccc(NC(=O)c4c(C)ncc(-c5ccsc5)c4O)cc3F)c2nc1OC [Compound 127, N-[4-[(6,7-Dimethoxy-1,5-naphthyridin-4-yl)oxy]-3-fluorophenyl]-4-hydroxy-2-methyl-5-thiophen-3-ylpyridine-3-carboxamide]
C=CCc1ccc(-c2c(C)ncc(C(=O)Nc3ccc(Oc4ccnc5cc(OC)c(OC)nc45)c(F)c3)c2O)o1 [Compound 155, N-[4-[(6,7-Dimethoxy-1,5-naphthyridin-4-yl)oxy]-3-fluorophenyl]-4-hydroxy-6-methyl-5-(5-prop-2-enylfuran-2-yl)pyridine-3-carboxamide]
COc1cc2nccc(Oc3ccc(NC(=O)c4cc(Br)c(C)n(-c5ccc(F)cn5)c4=O)cc3F)c2nc1OC [Compound 55, 5-Bromo-N-[4-[(6,7-dimethoxy-1,5-naphthyridin-4-yl)oxy]-3-fluorophenyl]-1-(5-fluoropyridin-2-yl)-6-methyl-2-oxopyridine-3-carboxamide]
COc1cc2nccc(Oc3ccc(NC(=O)c4cnc(C)c(-c5cncs5)c4O)cc3F)c2nc1OC [Compound 141, N-[4-[(6,7-Dimethoxy-1,5-naphthyridin-4-yl)oxy]-3-fluorophenyl]-4-hydroxy-6-methyl-5-(1,3-thiazol-5-yl)pyridine-3-carboxamide]
COc1cc2nccc(Oc3ccc(NC(=O)c4cn(CCF)c(C)c(-c5ccco5)c4=O)cc3F)c2nc1OC [Compound 333, N-[4-[(6,7-Dimethoxy-1,5-naphthyridin-4-yl)oxy]-3-fluorophenyl]-1-(2-fluoroethyl)-5-(furan-2-yl)-6-methyl-4-oxopyridine-3-carboxamide]
COc1cc2nccc(Oc3ccc(NC(=O)c4cnc(C)c(-c5nccs5)c4O)cc3F)c2nc1OC [Compound 143, N-[4-[(6,7-Dimethoxy-1,5-naphthyridin-4-yl)oxy]-3-fluorophenyl]-4-hydroxy-6-methyl-5-(1,3-thiazol-2-yl)pyridine-3-carboxamide]
COc1cc2nccc(Oc3ccc(NC(=O)c4cnc(C)c(-c5ccc(C)o5)c4O)cc3F)c2nc1OC [Compound 92, N-[4-[(6,7-Dimethoxy-1,5-naphthyridin-4-yl)oxy]-3-fluoro-phenyl]-4-hydroxy-6-methyl-5-(5-methyl-2-furyl)pyridine-3-carboxamide]
COc1cnc2c(Oc3ccc(NC(=O)c4c(C)n(C)c(C)c(-c5cccs5)c4=O)cc3)ccnc2c1 [Compound 165, N-[4-[(7-Methoxy-1,5-naphthyridin-4-yl)oxy]phenyl]-1,2,6-trimethyl-4-oxo-5-thiophen-2-ylpyridine-3-carboxamide]
COc1cc2nccc(Oc3ccc(NC(=O)c4c(C)nc(C)c(-c5ccc(C(C)C)o5)c4O)cc3F)c2nc1OC [Compound 148, N-[4-[(6,7-Dimethoxy-1,5-naphthyridin-4-yl)oxy]-3-fluorophenyl]-4-hydroxy-2,6-dimethyl-5-(5-propan-2-ylfuran-2-yl)pyridine-3-carboxamide]
COc1cnc2c(Oc3ccc(NC(=O)c4cnc(C)c(-c5ccco5)c4O)cc3F)ccnc2c1 [Compound 96, N-[3-Fluoro-4-[(7-methoxy-1,5-naphthyridin-4-yl)oxy]phenyl]-5-(2-furyl)-4-hydroxy-6-methyl-pyridine-3-carboxamide]
COc1cc2nccc(Oc3ccc(NC(=O)c4cnc(C)c(-c5cscn5)c4O)cc3F)c2nc1OC [Compound 142, N-[4-[(6,7-Dimethoxy-1,5-naphthyridin-4-yl)oxy]-3-fluorophenyl]-4-hydroxy-6-methyl-5-(1,3-thiazol-4-yl)pyridine-3-carboxamide]
COc1cc2nccc(Oc3ccc(NC(=O)c4cnc(C)c(-c5cnoc5)c4O)cc3F)c2nc1OC [Compound 140, N-[4-[(6,7-Dimethoxy-1,5-naphthyridin-4-yl)oxy]-3-fluorophenyl]-4-hydroxy-6-methyl-5-(1,2-oxazol-4-yl)pyridine-3-carboxamide]
COc1cc2nccc(Oc3ccc(NC(=O)c4c(C)nc(C)c(-c5cc(C)nn5C)c4O)cc3F)c2nc1OC [Compound 109, N-[4-[(6,7-Dimethoxy-1,5-naphthyridin-4-yl)oxy]-3-fluoro-phenyl]-5-(2,5-dimethylpyrazol-3-yl)-4-hydroxy-2,6-dimethyl-pyridine-3-carboxamide]
COc1cnc2c(Oc3ccc(NC(=O)c4cnc(C)c(-c5ccsc5)c4O)cc3F)ccnc2c1 [Compound 98, N-[3-Fluoro-4-[(7-methoxy-1,5-naphthyridin-4-yl)oxy]phenyl]-4-hydroxy-6-methyl-5-(3-thienyl)pyridine-3-carboxamide]
COc1ccc2nccc(Oc3ccc(NC(=O)c4cnc(C)c(-c5ccco5)c4O)cc3F)c2n1 [Compound 118, N-[3-Fluoro-4-[(6-methoxy-1,5-naphthyridin-4-yl)oxy]phenyl]-5-(furan-2-yl)-4-hydroxy-6-methylpyridine-3-carboxamide]
COc1cc2nccc(Oc3ccc(NC(=O)c4c(C)n(C)c(C)c(-c5cccs5)c4=O)cc3)c2nc1OC [Compound 167, N-[4-[(6,7-Dimethoxy-1,5-naphthyridin-4-yl)oxy]phenyl]-1,2,6-trimethyl-4-oxo-5-thiophen-2-ylpyridine-3-carboxamide]
CCc1ccc(-c2c(C)nc(C)c(C(=O)Nc3ccc(Oc4ccnc5cc(OC)c(OC)nc45)c(F)c3)c2O)o1 [Compound 147, N-[4-[(6,7-Dimethoxy-1,5-naphthyridin-4-yl)oxy]-3-fluorophenyl]-5-(5-ethylfuran-2-yl)-4-hydroxy-2,6-dimethylpyridine-3-carboxamide]
COc1cc2nccc(Oc3ccc(NC(=O)c4c(C)ncc(-c5cc(C)cs5)c4O)cc3F)c2nc1OC [Compound 125, N-[4-[(6,7-Dimethoxy-1,5-naphthyridin-4-yl)oxy]-3-fluorophenyl]-4-hydroxy-2-methyl-5-(4-methylthiophen-2-yl)pyridine-3-carboxamide]
C=C(C)c1ccc(-c2c(C)ncc(C(=O)Nc3ccc(Oc4ccnc5cc(OC)c(OC)nc45)c(F)c3)c2O)o1 [Compound 152, N-[4-[(6,7-Dimethoxy-1,5-naphthyridin-4-yl)oxy]-3-fluorophenyl]-4-hydroxy-6-methyl-5-(5-prop-1-en-2-ylfuran-2-yl)pyridine-3-carboxamide]
COc1cc2nccc(Oc3ccc(NC(=O)c4cnc(C)c(-c5ccc(C6CC6)o5)c4O)cc3F)c2nc1OC [Compound 155A, 5-(5-Cyclopropylfuran-2-yl)-N-[4-[(6,7-dimethoxy-1,5-naphthyridin-4-yl)oxy]-3-fluorophenyl]-4-hydroxy-6-methylpyridine-3-carboxamide hydrochloride]
